According to patent publication US20250026773A1, “MONO-P-TOLUENESULFONATE OF AXL KINASE INHIBITOR AND CRYSTAL FORM THEREOF” (NANJING CHIA TAI TIANQING PHARMACEUTICAL CO., LTD., priority 2021, published 2025):

What was measured:
[1] = Solubility in water and various pH media; format: physicochemical; conditions: thermodynamic from solid
[2] = Physicochemical stability study of crystal forms (XRPD and HPLC)
Description: Use XRPD and HPLC to detect the physical and chemical stability of the samples.

[3] = Pharmacokinetic study in ICR mice; format: in vivo; conditions: male, mouse, po, 10 mg·kg^-1 by gavage, plasma
Method: Each compound was prepared into a 10 mg/mL stock solution with DMSO.
Mixed solvent preparation: Tween 80:PEG 400:Water=1:9:90 (v/v/v).
Accurately aspirated 450 μL of DMSO stock solution of the compounds at a concentration of 10 mg/mL to a glass vial, respectively, added an appropriate volume of DMSO and mixed solvent, the ratio of solvent in the final preparation is DMSO:mixed solvent (v/v)=10:90, vortexed (or sonicated), dispersed homogeneously, to obtain the concentration of 1 mg/mL of 4.5 mL of the administered test solution respectively.
Male 6-10 weeks old ICR mice (mouse source: Viton Lever Laboratory Animal Technology Co., Ltd.) were taken, 6 mice in each group, and the mice were fasted overnight and fed 4 hours after drug administration. On the day of the experiment, mice were given 10 mg·kg^−1 of compound test solution by gavage respectively. After the administration of the drug, mice were blood sampled at 0, 5 min, 15 min, 30 min, 1 h, 2 h, 4 h, 8 h, and 24 h from the orbital region of about […], which was placed in EDTA-K2 anticoagulant tubes. […] Plasma concentration was determined by LC-MS/MS method.
Pharmacokinetic parameters were calculated using the non-compartment model in Pharsight Phoenix 7.0, and the results are detailed in the following table.

[4] = After placement, 40° C./75% RH, 5 days
[5] = After placement, 40° C./75% RH, 10 days
[6] = After placement, 40° C./75% RH, 30 days
[7] = After placement, 60° C., 5 days
[8] = After placement, 60° C., 10 days
[9] = After placement, 60° C., 30 days
[10] = After placement, 75% RH, 5 days
[11] = After placement, 75% RH, 10 days
[12] = After placement, 75% RH, 30 days
[13] = After placement, 92.5% RH, 5 days
[14] = After placement, 92.5% RH, 10 days
[15] = After placement, Light, 10 days

Compound `COCc1ccc(Nc2nc(Nc3ccc4c(c3)CC[C@@H](N3CCCC3)CC4)ncc2Cl)c(P(C)(C)=O)c1.Cc1ccc(S(=O)(=O)O)cc1` [crystal form B, mono-p-toluenesulfonate monohydrate of (S)-(2-((5-chloro-2-((7-(pyrrolidin-1-yl)-6,7,8,9-tetrahydro-5H-benzo[7]annulen-2-yl)amino)pyrimidin-4-yl)amino)-5-(methoxymethyl)phenyl)dimethylphosphine oxide] has a solubility ([1]; potassium dihydrogen phosphate/sodium hydroxide buffer, aqueous buffer, pH 6.0, potassium dihydrogen phosphate/sodium hydroxide) of 1900 µg/mL, a solubility ([1]; potassium dihydrogen phosphate/sodium hydroxide buffer, aqueous buffer, pH 6.8, potassium dihydrogen phosphate/sodium hydroxide) of 2100 µg/mL and a solubility ([1]; potassium dihydrogen phosphate/sodium hydroxide buffer, aqueous buffer, pH 7.4, potassium dihydrogen phosphate/sodium hydroxide) of 2100 µg/mL. It also gave a solubility ([1]; simulated gastric fluid, pH 1.0, dilute hydrochloric acid with water) of 87200 µg/mL, a solubility ([1]; simulated gastric fluid, pH 2.0, dilute hydrochloric acid with water) of 4700 µg/mL and a solubility ([1]; sodium acetate trihydrate/glacial acetic acid buffer, aqueous buffer, pH 4.5, sodium acetate trihydrate/glacial acetic acid) of 2000 µg/mL. The solubility ([1]; water) was 1400 µg/mL, the Crystal form [2, 4] was “Crystal form B” and the Maximum single impurity [2, 4] was “Maximum single impurity: 0.04 A %”. The Purity [2, 4] was “Purity: 99.81 A %”, the Crystal form [2, 5] was “Crystal form B” and the Maximum single impurity [2, 5] was “Maximum single impurity: 0.04 A %”. The Purity [2, 5] was “Purity: 99.82 A %”, the Crystal form [2, 6] was “Crystal form B” and the Maximum single impurity [2, 6] was “Maximum single impurity: 0.04 A %”. The Purity [2, 6] was “Purity: 99.81 A %”, the Crystal form [2, 7] was “Crystal form B” and the Maximum single impurity [2, 7] was “Maximum single impurity: 0.04 A %”. The Purity [2, 7] was “Purity: 99.81 A %”, the Crystal form [2, 8] was “Crystal form B” and the Maximum single impurity [2, 8] was “Maximum single impurity: 0.04 A %”. For the same compound, the Purity [2, 8] was “Purity: 99.82 A %”, the Crystal form [2, 9] was “Crystal form B” and the Maximum single impurity [2, 9] was “Maximum single impurity: 0.04 A %”. The Purity [2, 9] was “Purity: 99.80 A %”, the Crystal form [2, 10] was “Crystal form B” and the Maximum single impurity [2, 10] was “Maximum single impurity: 0.04 A %”. For the same compound, the Purity [2, 10] was “Purity: 99.81 A %”, the Crystal form [2, 11] was “Crystal form B” and the Maximum single impurity [2, 11] was “Maximum single impurity: 0.04 A %”. For the same compound, the Purity [2, 11] was “Purity: 99.82 A %”, the Crystal form [2, 12] was “Crystal form B” and the Maximum single impurity [2, 12] was “Maximum single impurity: 0.04 A %”. The Purity [2, 12] was “Purity: 99.80 A %”, the Crystal form [2, 13] was “Crystal form B” and the Maximum single impurity [2, 13] was “Maximum single impurity: 0.04 A %”. For the same compound, the Purity [2, 13] was “Purity: 99.81 A %”, the Crystal form [2, 14] was “Crystal form B” and the Maximum single impurity [2, 14] was “Maximum single impurity: 0.04 A %”. The Purity [2, 14] was “Purity: 99.82 A %”, the Crystal form ([2]; After placement, Light, 5 days) was “Crystal form B” and the Maximum single impurity ([2]; After placement, Light, 5 days) was “Maximum single impurity: 0.05 A %”. The Purity ([2]; After placement, Light, 5 days) was “Purity: 99.67 A %”, the Crystal form [2, 15] was “Crystal form B” and the Maximum single impurity [2, 15] was “Maximum single impurity: 0.10 A %”. The Purity [2, 15] was “Purity: 99.60 A %”, the Crystal form ([2]; Before placement) was “Crystal form B” and the Maximum single impurity ([2]; Before placement) was “impurity: 0.04 A %”. For the same compound, the Purity ([2]; Before placement) was “Purity: 99.81 A %”.
`COCc1ccc(Nc2nc(Nc3ccc4c(c3)CC[C@@H](N3CCCC3)CC4)ncc2Cl)c(P(C)(C)=O)c1` [Example 1, (S)-(2-((5-chloro-2-((7-(pyrrolidin-1-yl)-6,7,8,9-tetrahydro-5H-benzo[7]annulen-2-yl)amino)pyrimidin-4-yl)amino)-5-(methoxymethyl)phenyl)dimethylphosphine oxide] showed a half-life [3] of 1.35 h.
For `COCc1ccc(Nc2nc(Nc3ccc4c(c3)CC[C@@H](N3CCCC3)CC4)ncc2Cl)c(P(C)(C)=O)c1` [free base crystal form A, (S)-(2-((5-chloro-2-((7-(pyrrolidin-1-yl)-6,7,8,9-tetrahydro-5H-benzo[7]annulen-2-yl)amino)pyrimidin-4-yl)amino)-5-(methoxymethyl)phenyl)dimethylphosphine oxide], the Crystal form [2, 7] was “Crystal form A”, the Maximum single impurity [2, 7] was “impurity: 0.75 A %” and the Purity [2, 7] was “Purity: 96.39 A %”. The Crystal form [2, 8] was “Crystal form A”, the Maximum single impurity [2, 8] was “impurity: 1.21 A %” and the Purity [2, 8] was “Purity: 94.49 A %”. The Maximum single impurity [2, 9] was “impurity: 2.02 A %”, the Purity [2, 9] was “Purity: 89.65 A %” and the Crystal form ([2]; Before placement) was “Crystal form A”. For the same compound, the Maximum single impurity ([2]; Before placement) was “impurity: 0.05 A %” and the Purity ([2]; Before placement) was “Purity: 99.33 A %”.
In the case of `CN1CCN(Cc2ccc(Nc3ncc(Cl)c(Nc4ccccc4S(=O)(=O)N(C)C)n3)cc2)CC1` [Positive drug 2 (TP0903), reference compound], the half-life [3] is reported as 1.2 h.
